Test results taken from patent US20250257055A1, “TERTIARY AMIDE DERIVATIVES SUBSTITUTED WITH 4-MEMBERED RING STRUCTURE” (Sumitomo Pharma Co., Ltd., priority 2024, published 2025).
Where two headings read alike, the source gives them in different places.

Assays:
recombinant p300 = recombinant p300 (Homo sapiens (Human), UniProt Q09472); assay: HAT activity inhibition experiment (SensoLyte HAT(p300) Assay Kit); format: biochemical; conditions: recombinant p300, histone H3 peptide, acetyl CoA
Experimental: The HAT activity inhibitory ability of HAT inhibitors was evaluated using SensoLyte HAT(p300) Assay Kit (ANASPEC, AS-72172). Specifically, 7.5 μL of the compound of Examples […] diluted with assay buffer was added to 7.5 μL of recombinant p300 solution diluted 10 times with assay buffer, and the mixture was incubated at room temperature for 10 minutes. 7.5 μL of acetyl CoA solution diluted 10 times with assay buffer and 15 μL of histone H3 peptide diluted 10 times with assay buffer were added thereto, and the mixture was incubated at 37° C. for 30 minutes. 37.5 μL of Stop Solution was added to stop the reaction. 75 μL of p300 Developer solution diluted 50 times with assay buffer was added, and the mixture was incubated at room temperature for 30 minutes under light-shielded conditions. The fluorescence at 513 nm when irradiated with 389 nm excitation light was measured using a multiplate reader.

G-401 cells = assay: Cell proliferation inhibition experiment using G-401 cells; format: cell-based; conditions: Homo sapiens, 72 h, cultured for 3 days, CellTiter-Glo
Experimental: G-401 cells (derived from malignant rhabdoid tumor) were obtained from the American Type Culture Collection (ATCC). G-401 cells were cultured in McCoy's 5A medium containing 10% fetal bovine serum and 1% penicillin/streptomycin under conditions of 37° C. and 5% CO2.
500 cells per well were seeded in a 384-well plate. One day after seeding, Examples 1 to 35 were added so that the final concentration of DMSO was 0.1%, and the cells were cultured for 3 days. After the culture was completed, the cell viability was measured using CellTiter-Glo Luminescent Cell Viability Assay (Promega, G7570).

[1] = Membrane permeability test (PAMPA); format: in vitro ADME
Experimental: The membrane permeability of the test compound was tested by parallel artificial membrane permeability assay (PAMPA) as follows. 200 μL of System solution (pION Inc.) containing the test compound and 4 μL of GIT Lipid-0 (pION Inc.) were added to the donor plate. 200 μL of Acceptor Sink Buffer (pION Inc.) was added to the acceptor plate. Both plates were overlapped and incubated at 37° C. for 4 hours, after which the UV of the solutions on the acceptor side and donor side was measured using a UV plate reader (190-500 nm). Compounds with poor UV absorption were measured using LC-MS. The permeability coefficient Pe (10^−6 cm/sec) of the drug was calculated using the following equation.

[2] = pH 5.0, 37° C., read-out: pH 5.0 Pe
[3] = pH 7.4, 37° C., read-out: pH 7.4 Pe

Chain of recombinant p300 (Q09472 whole entry): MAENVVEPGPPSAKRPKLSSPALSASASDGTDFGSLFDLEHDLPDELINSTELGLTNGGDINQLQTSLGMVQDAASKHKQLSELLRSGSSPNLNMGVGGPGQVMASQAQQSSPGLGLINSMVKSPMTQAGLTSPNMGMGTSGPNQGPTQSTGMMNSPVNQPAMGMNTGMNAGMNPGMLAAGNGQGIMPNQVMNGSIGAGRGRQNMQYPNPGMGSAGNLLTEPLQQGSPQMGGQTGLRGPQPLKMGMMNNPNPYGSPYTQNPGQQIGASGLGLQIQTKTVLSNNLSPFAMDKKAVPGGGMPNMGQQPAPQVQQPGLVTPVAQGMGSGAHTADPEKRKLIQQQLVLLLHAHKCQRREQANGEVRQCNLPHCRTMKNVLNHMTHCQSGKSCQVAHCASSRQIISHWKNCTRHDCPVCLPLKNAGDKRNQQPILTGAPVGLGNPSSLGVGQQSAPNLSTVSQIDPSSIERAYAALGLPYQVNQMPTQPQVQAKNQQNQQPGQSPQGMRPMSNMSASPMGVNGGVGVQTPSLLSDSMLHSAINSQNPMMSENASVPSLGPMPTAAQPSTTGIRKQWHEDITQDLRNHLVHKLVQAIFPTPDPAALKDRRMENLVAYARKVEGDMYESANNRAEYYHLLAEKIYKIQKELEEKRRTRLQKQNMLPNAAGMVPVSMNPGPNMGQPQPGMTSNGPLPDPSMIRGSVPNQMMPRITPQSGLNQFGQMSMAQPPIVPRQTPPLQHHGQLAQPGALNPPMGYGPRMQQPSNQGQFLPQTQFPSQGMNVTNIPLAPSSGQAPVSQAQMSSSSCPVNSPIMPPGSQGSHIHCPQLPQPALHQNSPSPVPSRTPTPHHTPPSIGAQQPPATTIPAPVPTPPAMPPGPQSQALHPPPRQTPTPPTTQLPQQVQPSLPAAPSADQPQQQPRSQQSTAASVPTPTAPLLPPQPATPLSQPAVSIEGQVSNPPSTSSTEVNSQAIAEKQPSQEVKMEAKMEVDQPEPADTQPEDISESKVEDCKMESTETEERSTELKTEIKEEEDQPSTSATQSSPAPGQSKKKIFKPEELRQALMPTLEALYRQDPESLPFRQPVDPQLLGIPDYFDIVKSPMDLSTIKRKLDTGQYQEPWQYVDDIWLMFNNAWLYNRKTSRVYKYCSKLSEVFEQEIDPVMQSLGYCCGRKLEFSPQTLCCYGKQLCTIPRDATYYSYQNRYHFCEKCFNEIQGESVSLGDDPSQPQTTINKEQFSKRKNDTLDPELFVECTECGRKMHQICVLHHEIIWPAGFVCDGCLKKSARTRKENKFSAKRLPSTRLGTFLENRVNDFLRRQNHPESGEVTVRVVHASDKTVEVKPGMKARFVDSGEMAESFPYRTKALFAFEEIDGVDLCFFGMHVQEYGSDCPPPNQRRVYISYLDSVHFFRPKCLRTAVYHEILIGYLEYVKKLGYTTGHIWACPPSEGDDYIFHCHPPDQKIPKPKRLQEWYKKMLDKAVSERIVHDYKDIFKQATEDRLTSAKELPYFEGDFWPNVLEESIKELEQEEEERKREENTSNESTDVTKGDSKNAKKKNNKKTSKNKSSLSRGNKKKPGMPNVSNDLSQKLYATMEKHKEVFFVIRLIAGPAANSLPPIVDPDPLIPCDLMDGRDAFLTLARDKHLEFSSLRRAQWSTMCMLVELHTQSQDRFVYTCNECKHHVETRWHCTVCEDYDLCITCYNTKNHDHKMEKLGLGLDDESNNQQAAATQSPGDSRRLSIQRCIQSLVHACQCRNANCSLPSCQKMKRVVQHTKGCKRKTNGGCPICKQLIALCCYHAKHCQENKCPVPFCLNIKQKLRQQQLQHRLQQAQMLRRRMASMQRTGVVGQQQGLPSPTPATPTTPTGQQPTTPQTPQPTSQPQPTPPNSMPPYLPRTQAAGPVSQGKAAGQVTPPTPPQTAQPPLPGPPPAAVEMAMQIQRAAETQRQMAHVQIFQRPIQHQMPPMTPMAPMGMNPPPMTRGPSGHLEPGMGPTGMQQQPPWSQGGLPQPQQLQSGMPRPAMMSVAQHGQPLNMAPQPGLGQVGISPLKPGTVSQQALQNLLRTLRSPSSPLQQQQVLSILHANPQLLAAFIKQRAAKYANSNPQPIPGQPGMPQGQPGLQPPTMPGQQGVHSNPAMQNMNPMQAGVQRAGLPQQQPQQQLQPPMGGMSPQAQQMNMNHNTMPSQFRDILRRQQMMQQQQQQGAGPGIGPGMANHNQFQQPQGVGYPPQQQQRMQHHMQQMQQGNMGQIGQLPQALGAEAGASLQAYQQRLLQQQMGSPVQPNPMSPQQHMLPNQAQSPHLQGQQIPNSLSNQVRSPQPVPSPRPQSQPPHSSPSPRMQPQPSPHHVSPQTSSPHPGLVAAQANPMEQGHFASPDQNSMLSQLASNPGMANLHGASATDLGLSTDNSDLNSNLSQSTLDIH

IC50 (recombinant p300)	Papp at 4 h [1, 2]	Papp at 4 h [1, 3]	SMILES	IC50 (G-401 cells)
0.019 µM	74 nm/s	190 nm/s	CN1CC(F)(Cn2cc(-c3ccc4c(c3)CC[C@]43NC(=O)N(CC(=O)N(Cc4ccc(F)cc4)C4(C(F)(F)F)COC4)C3=O)cn2)C1 [Example 2, 2-[(1′S)-5′-{1-[(3-fluoro-1-methylazetidin-3-yl)methyl]-1H-pyrazol-4-yl}-2,5-dioxo-2′,3′-dihydrospiro[imidazolidine-4,1′-inden]-1-yl]-N-[(4-fluorophenyl)methyl]-N-[3-(trifluoromethyl)oxetan-3-yl]acetamide]	0.089 µM
0.0198 µM	31 nm/s	55 nm/s	O=C1N[C@]2(CCc3cc(-c4cnn(C5CN(C6COC6)C5)c4)ccc32)C(=O)N1CC(=O)N(Cc1ccc(F)cn1)C1(C(F)(F)F)COC1 [Example 6, N-[(5-fluoropyridin-2-yl)methyl]-2-[(1′S)-5′-{1-[1-(oxetan-3-yl)azetidin-3-yl]-1H-pyrazol-4-yl}-2,5-dioxo-2′,3′-dihydrospiro[imidazolidine-4,1′-inden]-1-yl]-N-[3-(trifluoromethyl)oxetan-3-yl]acetamide]	0.391 µM
–	135 nm/s	143 nm/s	O=C1N[C@]2(CCc3cc(-c4cnn(C5CN(C6COC6)C5)c4)ccc32)C(=O)N1CC(=O)N(Cc1ccc(F)cn1)C1(C(F)(F)F)CC(F)(F)C1 [Example 8, N-[3,3-difluoro-1-(trifluoromethyl)cyclobutyl]-N-[(5-fluoropyridin-2-yl)methyl]-2-[(1′S)-5′-{1-[1-(oxetan-3-yl)azetidin-3-yl]-1H-pyrazol-4-yl}-2,5-dioxo-2′,3′-dihydrospiro[imidazolidine-4,1′-inden]-1-yl]acetamide]	0.247 µM
0.0052 µM	262 nm/s	269 nm/s	CN1CC(N(Cc2ccc(F)cc2)C(=O)CN2C(=O)N[C@]3(CCc4cc(-c5cnn(C(C)(C)C#N)c5)ccc43)C2=O)(C(F)(F)F)C1 [Example 13, 2-{(1′S)-5′-[1-(2-cyanopropan-2-yl)-1H-pyrazol-4-yl]-2,5-dioxo-2′,3′-dihydrospiro[imidazolidine-4,1′-inden]-1-yl}-N-[(4-fluorophenyl)methyl]-N-[1-methyl-3-(trifluoromethyl)azetidin-3-yl]acetamide]	0.02 µM
0.124 µM	261 nm/s	279 nm/s	CN1CCn2ncc(-c3ccc4c(c3)[C@H](F)C[C@]43NC(=O)N(CC(=O)N(Cc4ccc(F)cc4)C4(C(F)(F)F)COC4)C3=O)c2C1 [Example 14, 2-[(1′S, 3′R)-3′-fluoro-5′-(5-methyl-4,5,6,7-tetrahydropyrazolo[1,5-a]pyrazin-3-yl)-2,5-dioxo-2′,3′-dihydrospiro[imidazolidine-4,1′-inden]-1-yl]-N-[(4-fluorophenyl)methyl]-N-[3-(trifluoromethyl)oxetan-3-yl]acetamide]	0.677 µM
0.0061 µM	300 nm/s	333 nm/s	CN1CC(N(Cc2ccc(F)cc2)C(=O)CN2C(=O)N[C@]3(C[C@@H](F)c4cc(-c5cnn(C)c5F)ccc43)C2=O)(C(F)(F)F)C1 [Example 15, 2-[(1′S,3′R)-3′-fluoro-5′-(5-fluoro-1-methyl-1H-pyrazol-4-yl)-2,5-dioxo-2′,3′-dihydrospiro[imidazolidine-4,1′-inden]-1-yl]-N-[(4-fluorophenyl)methyl]-N-[1-methyl-3-(trifluoromethyl)azetidin-3-yl]acetamide]	0.033 µM
0.0536 µM	292 nm/s	320 nm/s	CN1CC(N(Cc2ccc(F)cc2)C(=O)CN2C(=O)N[C@]3(CCc4cc(-c5cnn(C)c5F)ccc43)C2=O)(C(F)(F)F)C1 [Example 16, 2-[(1′S)-5′-(5-fluoro-1-methyl-1H-pyrazol-4-yl)-2,5-dioxo-2′,3′-dihydrospiro[imidazolidine-4,1′-inden]-1-yl]-N-[(4-fluorophenyl)methyl]-N-[1-methyl-3-(trifluoromethyl)azetidin-3-yl]acetamide]	0.31 µM
0.0023 µM	281 nm/s	322 nm/s	CN1CC(N(Cc2ccc(F)cc2)C(=O)CN2C(=O)N[C@]3(C[C@@H](F)c4cc(-c5cn(C)nc5F)ccc43)C2=O)(C(F)(F)F)C1 [Example 17, 2-[(1′S,3′R)-3′-fluoro-5′-(3-fluoro-1-methyl-1H-pyrazol-4-yl)-2,5-dioxo-2′,3′-dihydrospiro[imidazolidine-4,1′-inden]-1-yl]-N-[(4-fluorophenyl)methyl]-N-[1-methyl-3-(trifluoromethyl)azetidin-3-yl]acetamide]	0.025 µM
0.0582 µM	286 nm/s	318 nm/s	CN1CC(N(Cc2ccc(F)cc2)C(=O)CN2C(=O)N[C@]3(CCc4cc(-c5cn(C)nc5F)ccc43)C2=O)(C(F)(F)F)C1 [Example 18, 2-[(1′S)-5′-(3-fluoro-1-methyl-1H-pyrazol-4-yl)-2,5-dioxo-2′,3′-dihydrospiro[imidazolidine-4,1′-inden]-1-yl]-N-[(4-fluorophenyl)methyl]-N-[1-methyl-3-(trifluoromethyl)azetidin-3-yl]acetamide]	0.292 µM
0.0072 µM	244 nm/s	289 nm/s	CN1CC(N(Cc2ccc(F)cc2)C(=O)CN2C(=O)N[C@]3(C[C@@H](F)c4cc(-c5cnn(C6CCOCC6)c5)ccc43)C2=O)(C(F)(F)F)C1 [Example 19, 2-{(1′S,3′R)-3′-fluoro-5′-[1-(oxan-4-yl)-1H-pyrazol-4-yl]-2,5-dioxo-2′,3′-dihydrospiro[imidazolidine-4,1′-inden]-1-yl}-N-[(4-fluorophenyl)methyl]-N-[1-methyl-3-(trifluoromethyl)azetidin-3-yl]acetamide]	0.024 µM
0.052 µM	62 nm/s	212 nm/s	CN1CC(N(Cc2ccc(F)cn2)C(=O)CN2C(=O)N[C@]3(CCc4cc(-c5cnn(C)c5)ccc43)C2=O)(C(F)(F)F)C1 [Example 21, N-[(5-fluoropyridin-2-yl)methyl]-2-[(1′S)-5′-(1-methyl-1H-pyrazol-4-yl)-2,5-dioxo-2′,3′-dihydrospiro[imidazolidine-4,1′-inden]-1-yl]-N-[1-methyl-3-(trifluoromethyl)azetidin-3-yl]acetamide]	0.353 µM
0.011 µM	212 nm/s	230 nm/s	CN(C)C1(Cn2cc(-c3ccc4c(c3)[C@H](F)C[C@]43NC(=O)N(CC(=O)N(Cc4ccc(F)cc4)C4(C(F)(F)F)COC4)C3=O)cn2)COC1 [Example 22, 2-[(1′S,3′R)-5′-(1-{[3-(dimethylamino)oxetan-3-yl]methyl}-1H-pyrazol-4-yl)-3′-fluoro-2,5-dioxo-2′,3′-dihydrospiro[imidazolidine-4,1′-inden]-1-yl]-N-[(4-fluorophenyl)methyl]-N-[3-(trifluoromethyl)oxetan-3-yl]acetamide]	0.068 µM
0.0092 µM	102 nm/s	163 nm/s	CN1CC(N(Cc2ccc(F)cn2)C(=O)CN2C(=O)N[C@]3(C[C@@H](F)c4cc(-c5cnn(C(C)(C)C#N)c5)ccc43)C2=O)(C(F)(F)F)C1 [Example 26, 2-{(1′S,3′R)-5′-[1-(2-cyanopropan-2-yl)-1H-pyrazol-4-yl]-3′-fluoro-2,5-dioxo-2′,3′-dihydrospiro[imidazolidine-4,1′-inden]-1-yl}-N-[(5-fluoropyridin-2-yl)methyl]-N-[1-methyl-3-(trifluoromethyl)azetidin-3-yl]acetamide]	0.014 µM
0.0068 µM	6 nm/s	35 nm/s	CN1CC(N(Cc2ccc(F)cn2)C(=O)CN2C(=O)N[C@]3(C[C@@H](F)c4cc(-c5cnn(C(C)(C)CO)c5)ccc43)C2=O)(C(F)(F)F)C1 [Example 27, 2-{(1′S,3′R)-3′-fluoro-5′-[1-(1-hydroxy-2-methylpropan-2-yl)-1H-pyrazol-4-yl]-2,5-dioxo-2′,3′-dihydrospiro[imidazolidine-4,1′-inden]-1-yl}-N-[(5-fluoropyridin-2-yl)methyl]-N-[1-methyl-3-(trifluoromethyl)azetidin-3-yl]acetamide]	0.022 µM
–	257 nm/s	300 nm/s	CN1CC(N(Cc2ccc(F)cc2)C(=O)CN2C(=O)N[C@@]3(C[C@H](F)c4cc(-c5cnn(C)c5)c(F)cc43)C2=O)(C(F)(F)F)C1 [Example 28, 2-[(1′R,3'S)-3′,6′-difluoro-5′-(1-methyl-1H-pyrazol-4-yl)-2,5-dioxo-2′,3′-dihydrospiro[imidazolidine-4,1′-inden]-1-yl]-N-[(4-fluorophenyl)methyl]-N-[1-methyl-3-(trifluoromethyl)azetidin-3-yl]acetamide]	–
